# Measured values: patent publication US8871741B2, “Inhibition of TNF-α induced activation of NFKB by pentosan polysulfate” (Icahn School of Medicine at Mount Sinai, priority 2010, dated 2014)
# Assays:
# macrophages (F4/80) = test: F4/80 immunostaining for macrophage infiltration in kidney; assay type: in vivo, mouse; conditions: PPS treated 22 month-old diabetic mice
# Excerpt: Paraffin sections from non-diabetic and diabetic mice were deparaffinized prior to staining for apoptosis, makers for inflammation such as macrophages (F4/80, 1:100, Caltag Laboratories, Burlingame, Calif.) and phosphorylated NF-κB (p65 (Ser276), 1:25, Cell Signaling Technology, Inc, Danvers, Mass.), markers for oxidative stress, i.e., nitrotyrosine (1:140, Upstate Biotechnology Inc, Billerica, Mass.) and malondialdehyde (MDA, 1:100, Alpha Diagnostic International Inc, San Antonio, Tex.), and markers for endoplasmic reticulum (ER) stress, i.e., phosphorylated pancreatic ER kinase (PERK, 1:5, Santa Cruz Biotechnology, Santa Cruz, Calif.), and phosphorylated eukaryotic initiation factor 2α (eIF2α, 1:50, Stressgen Bioreagents Corp, Norwalk, Conn.).
# Stained sections were examined under light microscopy (Zeiss Axioskop, Germany). The cortical area of the kidney was digitized under ×10 objective low power with a Sony 3CCD color video camera and a meta imaging series software (Molecular Devices, Downingtown, Pa.). The area of positively stained tubules and glomeruli was measured and expressed as the percentage of total cortical area. The intensity of the staining was also assessed using the color differentiation program.
# [1] = tested on: 22 month-old diabetic C57B6 mice; test: Diabetic nephropathy in aged streptozotocin-diabetic C57B6 mice (albuminuria, renal histology, morphometry, serum chemistry); assay type: in vivo, mouse
# Protocol: 4 and 16-17 month-old female C57B6 mice were obtained from National Institute on Aging and were injected with streptozotocin to induce diabetes. Mice were given 50 μg/g of streptozotocin in every three days, for a total of 5-8 injections. A total of 250-400 μg/g of streptozotocin was sufficient in most of mice to induce stable hyperglycemia (≧250 mg/dL). The streptozotocin dose required to establish stable diabetes was similar between […] and 4 month-old mice. There was less than 10% of mortality in both age groups of diabetic mice with this streptozotocin protocol. Dead mice were excluded from further study. Mice with stable diabetes at 5 or 18 months of age were selected for randomization. Female C57B6 mice were chosen as the onset and nature of renal lesions in aging was documented by the inventors herein These mice have irregular, lengthened estrous cycles around 10 to 14 months of age and the cycles usually cease at 18 months of age. […] 18 month-old diabetic mice were randomly divided into PPS treated (n=10, PPS 25 mg/kg/day in drinking water) and control (n=11) groups. No PPS treatment was given to 5 month-old diabetic mice. Both age groups of diabetic mice were followed for 4 months without insulin treatment. Body weight and blood glucose levels were monitored weekly. Urine albumin excretion was measured bi-weekly using an ELISA kit (Bethyl Laboratory Inc, Houston, Tex., USA), as previously described (Zheng F, et al. Am J Pathol 2003, 162:1339-1348). Urine creatinine levels were measured in the same samples and the urine albumin excretion rate was expressed as the ratio of albumin to creatinine Blood urea nitrogen (BUN) levels and serum creatinine levels were examined at sacrifice. High-performance liquid chromatography (HPLC) was applied for determining serum creatinine levels using the method described by Yuen et al. (Am J Physiol Renal Physiol 2004, 286:F1116-1119).
# Mice were sacrificed 4 months after stable hyperglycemia was established. Kidneys were perfused with a saline solution and subsequently one kidney was perfusion-fixed in situ with 4% paraformaldehyde for histologic studies. The tissues were embedded in glycol methacrylate or low melting paraffin, and stained with periodic acid Schiff (PAS) and Masson's Trichrome. Tissues were also postfixed for 1 hour in 1.0% osmium tetroxide, prestained in 1.25% uranyl acetate for 1 hour, dehydrated through a series of graded alcohol solutions, and embedded in EPON epoxy resin for electron microscopy. The glomerular volume and mesangial area were determined by examining plastic embedded sections using a digitizing tablet and video camera. The relative mesangial area was expressed as mesangial/glomerular surface area. Glomerular cell number was determined by counting the nuclear number in at least 30 glomeruli of each section. The glomerular basement membrane thickness was measured by the orthogonal intercept method on electron microscopic images. To determine the number of glomerular fenestrae, the length of was fenestrated or unfenestrated glomerular capillary endothelial cytoplasm was measured. Fenestrated endothelial cell cytoplasm was generally thin whereas the thickness of the unfenestrated endothelial cell cytoplasm was twice or more increased. Tubulointerstitial lesions were scored from 0 to 4 (0, no changes; 1+, changes affecting <25% of the sample; 2+, changes affecting 25 to 50% of the sample; 3+, changes affecting 50 to 75% of the sample; 4+, changes affecting 75 to 100% of the sample) based on tubular atrophy, increase in the thickness of basement membranes and interstitial area, and clusters of inflammatory cells.
# [2] = Plasma lipid and lipoprotein analyses in WHHL rabbits; assay type: in vivo, rabbit; conditions: for Free cholesterol / Phospholipids / Total cholesterol / Triglycerides: mean ± SEM, 5 animals
# Protocol: Blood was drawn from rabbits after a 12-hour fast into tubes containing EDTA at the beginning of the study, every two weeks during treatment with the atherogenic diet, and at the end of the study. The total cholesterol and triglyceride concentrations (Sigma) as well as unesterified cholesterol and phospholipids (Wako Chemicals, Richmond, Va.) were determined on plasma samples using enzymatic methods on a Hitachi 911 Autoanalyzer (Boehringer Mannheim). Post-heparin hepatic lipase activity was determined as described (Iverius P H, Brunzell J D. Am J Physiol 1985; 249: E107-E114).
# [3] = 22 month-old diabetic mice treated with PPS, n = 10, at sacrifice, mean±SD
# [4] = 22 month-old diabetic mice, PPS 25 mg/kg/day in drinking water, 4 months
# [5] = morphometric analysis, PPS treated versus untreated 22 month-old diabetic mice
# [6] = 45 days HC-diet, PPS group before start of PPS
# [7] = 75 days HC-diet, PPS in drinking water for the last 30 days
# [8] = Baseline (3 months of age), PPS group before treatment
substance,measurement,setting,value
pentosan polysulfate [PPS],macrophage infiltration in kidney (F4/80 immunostaining),macrophages (F4/80),largely prevented
same,BUN,[1]; [3],21.3 ± 5.6 mg/dL
same,Scr (serum creatinine),[1]; [3],0.118 ± 0.02 mg/dL
same,reduction in tubulointerstitial lesions,[1]; [4],~80%
same,reduction of the increase in the albumin excretion rate,[1]; [4],about 50%
same,reduction of glomerular endothelial fenestrations,"[1]; morphometric analysis, PPS treated 22 month-old diabetic mice",largely prevented
same,glomerular basement membrane width,[1]; [5],decreased
same,mesangial area,[1]; [5],decreased
same,Free cholesterol,[2]; [6],1038.52 ± 128.80 mg/dL
same,Phospholipids,[2]; [6],1241.09 ± 142.75 mg/dL
same,Total cholesterol,[2]; [6],2133.28 ± 85.04 mg/dL
same,Triglycerides,[2]; [6],331.28 ± 86.61 mg/dL
same,Free cholesterol,[2]; [7],785.46 ± 93.22 mg/dL
same,Phospholipids,[2]; [7],878.17 ± 107.98 mg/dL
same,Total cholesterol,[2]; [7],1565.40 ± 212.07 mg/dL
same,Triglycerides,[2]; [7],184.10 ± 30.19 mg/dL
same,Free cholesterol,[2]; [8],282.92 ± 13.03 mg/dL
same,Phospholipids,[2]; [8],574.59 ± 26.44 mg/dL
same,Total cholesterol,[2]; [8],901.18 ± 50.30 mg/dL
same,Triglycerides,[2]; [8],762.91 ± 72.13 mg/dL
same,plasma lipid levels after 75 days of HC-diet versus 45 days,"[2]; PPS-treated WHHL rabbits, a trend towards reduction was observed",not significantly different
